Source: patent publication US20230113511A1, “USE OF TMAVA ANTAGONIST AND SYSTEM FOR DIAGNOSING FATTY LIVER OR HEART FAILURE” (ProgLead, Inc, priority 2020, published 2023)

Columns and labels:
[1] = molecular target: T1, γ-isopropylbetaine hydroxylase (Bbox) (Homo sapiens, UniProt O75936); assay: Bbox immobilized on a graphene surface and contacted with TMAVA; assay type: binding; settings: in a similar way as γ-BB to Bbox
T1 sequence (O75936 1-387): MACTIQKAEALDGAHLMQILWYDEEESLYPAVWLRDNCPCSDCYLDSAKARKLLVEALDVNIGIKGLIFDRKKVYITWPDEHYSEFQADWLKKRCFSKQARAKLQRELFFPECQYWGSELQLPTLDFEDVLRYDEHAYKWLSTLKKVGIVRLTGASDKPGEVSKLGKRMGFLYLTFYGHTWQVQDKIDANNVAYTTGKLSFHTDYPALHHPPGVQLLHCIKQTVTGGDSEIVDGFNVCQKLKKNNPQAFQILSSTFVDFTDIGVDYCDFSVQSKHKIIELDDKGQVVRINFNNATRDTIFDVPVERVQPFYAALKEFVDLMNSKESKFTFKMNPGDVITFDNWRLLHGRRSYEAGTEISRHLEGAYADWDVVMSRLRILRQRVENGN

mice [2] = assay: Carnitine absorption: d9-carnitine by gavage in TMAVA-treated mice; assay type: in vivo
mice [3] = assay: Lipidolysis in high-fat diet mice given TMAVA in drinking water for 8 weeks; assay type: in vivo
Description: (§1) Mice in an experimental group were given a high-fat diet and drinking water dissolved with 0.325% (mass/volume %) TMAVA; and mice in a control group were given a high-fat diet and normal drinking water. After 8 weeks, the mice in the experimental group and the control group were sacrificed and tested.

mice [4] = assay: High-fat diet mice given TMAVA in drinking water for 8 weeks (fatty liver and myocardial hypertrophy); assay type: in vivo
Description: as §1, with “TMAVA for 8 weeks;” for “TMAVA;”

[5] = molecular target: T1, γ-isopropylbetaine hydroxylase (Bbox); assay: Binding affinity of Bbox and TMAVA by surface plasmon resonance; settings: read-out: separation rate coefficient constant (binding affinity of Bbox and TMAVA)
[6] = molecular target: T2, γ-isopropylbetaine hydroxylase (Bbox) (Mus musculus, UniProt Q924Y0); assay: d9 carnitine formation from d9-γ-BB in high-fat diet mice given TMAVA; assay type: in vivo; settings: 0.325% TMAVA in drinking water and d9-γ-BB, 8 weeks
T2 construct: from tissue; host or cells: whole animal (mice on high-fat diet)
T2 sequence (Q924Y0 1-387): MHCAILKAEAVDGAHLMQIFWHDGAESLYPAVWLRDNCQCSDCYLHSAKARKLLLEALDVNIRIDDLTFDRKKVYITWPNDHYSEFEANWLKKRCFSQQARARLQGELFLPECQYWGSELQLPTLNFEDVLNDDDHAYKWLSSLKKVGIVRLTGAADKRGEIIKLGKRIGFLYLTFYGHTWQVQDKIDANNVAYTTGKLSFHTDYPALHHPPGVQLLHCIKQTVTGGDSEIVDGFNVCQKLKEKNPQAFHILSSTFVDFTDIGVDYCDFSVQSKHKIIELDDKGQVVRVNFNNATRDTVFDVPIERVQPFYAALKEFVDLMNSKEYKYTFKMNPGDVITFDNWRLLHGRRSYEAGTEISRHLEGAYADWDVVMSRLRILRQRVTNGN
Description: Endogenous carnitine synthesis played an important role in physiological dynamic equilibrium. A carnitine precursor (γ-BB) was hydroxylated by y-isopropylbetaine hydroxylase (Bbox) to produce carnitine.
Mice in an experimental group were given a high-fat diet, drinking water dissolved with 0.325% (mass/volume %) TMAVA, and d9-γ-BB; and mice in the control group were given a high-fat diet, normal drinking water, and d9-γ-BB. After 8 weeks, the mice in the experimental group and the control group were sacrificed and tested.

DavA and DavB proteins = molecular target: T3, DavA and DavB proteins (Pseudomonas putida, UniProt Q88QV1); settings: purified DavA and DavB proteins from recombinant Escherichia coli strains
T3 sequence (Q88QV1 1-560): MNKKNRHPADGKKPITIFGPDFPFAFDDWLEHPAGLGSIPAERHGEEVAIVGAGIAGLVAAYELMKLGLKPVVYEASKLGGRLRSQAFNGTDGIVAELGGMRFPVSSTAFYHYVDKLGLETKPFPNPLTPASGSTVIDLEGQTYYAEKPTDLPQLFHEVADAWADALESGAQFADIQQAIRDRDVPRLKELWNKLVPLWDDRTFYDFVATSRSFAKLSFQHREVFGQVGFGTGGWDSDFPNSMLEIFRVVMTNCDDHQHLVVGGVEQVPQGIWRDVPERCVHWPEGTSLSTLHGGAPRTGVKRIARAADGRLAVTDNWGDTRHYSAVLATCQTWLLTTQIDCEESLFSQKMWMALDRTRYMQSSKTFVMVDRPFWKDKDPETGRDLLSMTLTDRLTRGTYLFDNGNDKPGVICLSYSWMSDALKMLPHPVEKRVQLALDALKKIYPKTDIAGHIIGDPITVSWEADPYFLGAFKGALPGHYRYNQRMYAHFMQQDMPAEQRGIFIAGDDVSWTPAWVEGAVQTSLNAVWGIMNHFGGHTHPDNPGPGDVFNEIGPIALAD

mice [7] = assay: TML added to the drinking water of mice, urine TMAVA; assay type: in vivo
Description: The antibiotic-treated mice were then placed in conventional cages with normal (non-sterile) mice to colonize the intestinal flora.

intestinal flora = assay: Co-incubation of conventionally raised mice feces with TML; settings: different concentrations of TML, sterilized feces had no such effect
mice [8] = assay: Exogenous carnitine supplementation in TMAVA-induced fatty liver and myocardial hypertrophy in mice; assay type: in vivo; settings: high-fat diet, 0.325% TMAVA plus 0.325% carnitine in drinking water, 8 weeks
Description: Mice were given a high-fat diet and drinking water containing 0.325% (mass/volume %) TMAVA; at the same time, one group was given TMAVA with 0.325% (mass/volume %) carnitine added to the drinking water (carnitine supplementation group).

mice [9] = assay: d9-TML by gavage in mice, plasma d9-TMAVA; assay type: in vivo
[10] = histological analysis, 0.325% TMAVA

Q: Which results are given for C[N+](C)(C)CCCCC(=O)[O-] [TMAVA, N,N,N-trimethyl-5-aminovaleric acid]?
A: binding of TMAVA to Bbox on graphene surface [1]: can bind to Bbox; level of d9-carnitine in the plasma compared with normal mice (mice [2]): significantly lower; level of free fatty acid in the blood compared with control group (mice [3]; 0.325% TMAVA in drinking water): higher; weight of the mice, decrease compared with control group (mice [3]; 0.325% TMAVA in drinking water): 30%; percentage of large and medium-sized fat cells in the subcutaneous fat (mice [3]; [10]): decreased; percentage of small fat cells in the subcutaneous fat (mice [3]; [10]): increased; concentration of TMAVA in the plasma and various tissues, increase compared with control group (mice [4]; 0.325% (mass/volume %) TMAVA in drinking water): 10 times; cardiac systolic function (mice [4]; 0.325% TMAVA in drinking water): significantly reduced; concentration of aspartate aminotransferase in the plasma compared with control group (mice [4]; 0.325% TMAVA in drinking water): higher; level of triglyceride in the liver and heart tissues compared with control group (mice [4]; 0.325% TMAVA in drinking water): significantly higher; lipid droplet content in the liver and heart tissues (oil red O) compared with control group (mice [4]; 0.325% TMAVA in drinking water): higher; liver and heart size compared with control group (mice [4]; 0.325% TMAVA in drinking water): significantly larger; content of triglyceride in the plasma compared with control group (mice [4]; fasting state, 0.325% TMAVA in drinking water): significantly higher; Kd [5]: 9.8 µM; level of d9 carnitine compared with control group [6]: significantly lower

Q: What does the source list for C[N+](C)(C)CCCC[C@H](N)C(=O)O [TML, Trimethyllysine]?
A: TMAVA production in vitro from TML (DavA and DavB proteins): time-dependently produced; TMAVA level in urine (mice [7]): increased; TMAVA level on co-incubation of feces with TML (intestinal flora): increased over time and concentration

Q: Which results are given for C[N+](C)(C)CC(O)CC(=O)[O-] (centres unmarked) [carnitine]?
A: aspartate aminotransferase after carnitine supplementation (mice [8]): 50 U/L; cardiac systolic function (mice [8]): significantly improved; content of triglyceride in the liver tissues, decrease (mice [8]): 20%; level of free fatty acid in the plasma (mice [8]): decreased; level of triglyceride in the plasma, decrease (mice [8]): 50%; lipid content in the liver tissues (oil red O) (mice [8]): decreased; weight of the heart (mice [8]): significantly reduced

Q: With [2H]C([2H])([2H])[N+](CCCCC(N)C(=O)[O-])(C([2H])([2H])[2H])C([2H])([2H])[2H] (centres unmarked) [d9-TML] as the molecule, how does the “plasma level of d9-TMAVA after d9-TML” value (mice [9]) read?
A: The value was “increase over time”.
